Measured values as given in the supplement of paper PMC10307832.

Legend:
Experiment in all cases: relative viability (nuclei count vs DMSO), 5 days (fraction); higher = more cells survive
IPA-3 + Lapatinib = compound: C1=CC=C2C(=C1)C=CC(=C2SSC3=C(C=CC4=CC=CC=C43)O)O [IPA-3] + CS(=O)(=O)CCNCc1ccc(-c2ccc3ncnc(Nc4ccc(OCc5cccc(F)c5)c(Cl)c4)c3c2)o1 [Lapatinib] (partner 2 µM)
Procedure, shortened: (§1)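 Each reported value is a median over duplicate plates. It expresses relative viability: treated-well nuclei count divided by vehicle-well nuclei count. Lung cancer cell lines in 1536-well plates were dosed by pin tool a day after seeding, alone with one drug or with a fixed anchor-drug dose plus five library-drug doses (not always all listed) in √10 steps, and nuclei were counted after 5 days.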

RAF265 + Decitabine = compound: Cn1c(Nc2ccc(C(F)(F)F)cc2)nc2cc(Oc3ccnc(-c4ncc(C(F)(F)F)[nH]4)c3)ccc21 [RAF265] + Nc1ncn([C@H]2C[C@H](O)[C@@H](CO)O2)c(=O)n1 [Decitabine] (partner 2 µM)
Procedure, shortened: as §1

IPA-3 + Pictilisib = compound: C1=CC=C2C(=C1)C=CC(=C2SSC3=C(C=CC4=CC=CC=C43)O)O [IPA-3] + CS(=O)(=O)N1CCN(Cc2cc3nc(-c4cccc5[nH]ncc45)nc(N4CCOCC4)c3s2)CC1 [Pictilisib] (partner 1 µM)
Procedure, shortened: as §1

RAF265 + Pictilisib = compound: Cn1c(Nc2ccc(C(F)(F)F)cc2)nc2cc(Oc3ccnc(-c4ncc(C(F)(F)F)[nH]4)c3)ccc21 [RAF265] + CS(=O)(=O)N1CCN(Cc2cc3nc(-c4cccc5[nH]ncc45)nc(N4CCOCC4)c3s2)CC1 [Pictilisib] (partner 1 µM)
Procedure, shortened: as §1

Row | Cell Line | relative viability (IPA-3 + Lapatinib; first compound 0.2 µM) | relative viability (IPA-3 + Lapatinib; first compound 0.6325 µM) | relative viability (IPA-3 + Lapatinib; first compound 2 µM) | relative viability (IPA-3 + Lapatinib; first compound 6.325 µM) | relative viability (IPA-3 + Lapatinib; first compound 20 µM) | relative viability (RAF265 + Decitabine; first compound 0.01 µM) | relative viability (RAF265 + Decitabine; first compound 0.03162 µM) | relative viability (RAF265 + Decitabine; first compound 0.1 µM) | relative viability (RAF265 + Decitabine; first compound 0.3162 µM) | relative viability (RAF265 + Decitabine; first compound 1 µM) | relative viability (IPA-3 + Pictilisib; first compound 0.2 µM) | relative viability (IPA-3 + Pictilisib; first compound 0.6325 µM) | relative viability (IPA-3 + Pictilisib; first compound 2 µM) | relative viability (IPA-3 + Pictilisib; first compound 6.325 µM) | relative viability (IPA-3 + Pictilisib; first compound 20 µM) | relative viability (RAF265 + Pictilisib; first compound 0.01 µM) | relative viability (RAF265 + Pictilisib; first compound 0.1 µM) | relative viability (RAF265 + Pictilisib; first compound 0.3162 µM) | relative viability (RAF265 + Pictilisib; first compound 1 µM) | relative viability (RAF265 + Pictilisib; first compound 0.03162 µM)
1 | HOP-62 | 1.2 | 0.935 | 0.918 | 1.13 | 1.16 | 0.223 | 0.215 | 0.238 | 0.226 | 0.186 | 1.04 | 0.651 | 0.589 | 0.668 | 0.63 | 0.641 | 0.726 | 0.426 | 0.179 | –
2 | LC-2-ad | 1.04 | 1 | 1.04 | 0.961 | 1.09 | 0.778 | 0.814 | 0.884 | 0.773 | 0.516 | 0.461 | 0.627 | 0.502 | 0.443 | 0.43 | 0.441 | 0.223 | 0.171 | 0.0927 | 0.361
3 | LCLC-97TM1 | 1.14 | 1.03 | 1.13 | 0.938 | 0.937 | 0.248 | 0.203 | 0.191 | 0.159 | 0.122 | 0.195 | 0.165 | 0.198 | 0.216 | 0.175 | 0.177 | 0.112 | 0.145 | 0.107 | 0.172
4 | LK-2 | 1.13 | 0.877 | 0.959 | 0.9 | 0.821 | 0.385 | 0.339 | 0.348 | 0.316 | 0.179 | 0.47 | 0.572 | 0.708 | 0.646 | 0.695 | 0.528 | 0.604 | 0.531 | 0.403 | 0.669
5 | LOU-NH91 | 0.745 | 0.799 | 0.74 | 0.77 | 0.789 | 0.828 | 0.745 | 0.763 | 0.685 | 0.685 | 0.505 | 0.501 | 0.567 | 0.523 | 0.57 | 0.529 | 0.495 | 0.481 | 0.474 | 0.487
6 | LU99A | 0.934 | 0.95 | 1.05 | 0.922 | 0.943 | 0.814 | 0.842 | 0.652 | 0.477 | 0.302 | 0.353 | 0.317 | 0.333 | 0.321 | 0.277 | 0.324 | 0.233 | 0.21 | 0.187 | 0.269
7 | LXF-289 | 0.976 | 0.869 | 0.973 | 0.941 | 0.931 | 0.446 | 0.399 | 0.393 | 0.345 | 0.26 | 0.85 | 0.703 | 0.772 | 0.791 | 0.918 | 0.857 | 0.577 | 0.361 | 0.374 | 0.655
8 | NCI-H23 | 1.16 | 1.04 | 1.24 | 1.09 | 0.735 | 0.335 | 0.317 | 0.258 | 0.266 | 0.175 | 0.672 | 0.531 | 0.473 | 0.509 | 0.611 | 0.545 | 0.393 | 0.245 | 0.206 | 0.429
9 | NCI-H322M | 0.566 | 0.66 | 0.596 | 0.566 | 0.613 | 0.704 | 0.667 | 0.593 | 0.495 | 0.395 | 0.501 | 0.272 | 0.508 | 0.481 | 0.572 | 0.48 | 0.406 | 0.308 | 0.252 | 0.487
10 | NCI-H358 | 0.532 | 0.47 | 0.445 | 0.51 | 0.413 | 0.25 | 0.206 | 0.164 | 0.15 | 0.154 | 0.35 | 0.347 | 0.372 | 0.372 | 0.291 | 0.398 | 0.28 | 0.261 | 0.249 | 0.298
11 | NCI-H460 | – | 0.807 | 1.1 | 0.889 | 1.19 | 0.505 | 0.458 | 0.567 | 0.499 | 0.48 | 0.479 | 0.321 | 0.36 | 0.408 | 0.557 | 0.5 | 0.403 | 0.201 | 0.179 | 0.455
12 | NCI-H520 | 1.04 | 0.894 | 0.697 | 0.95 | 0.729 | 0.567 | 0.418 | 0.478 | 0.452 | 0.345 | 0.3 | 0.277 | 0.268 | 0.246 | 0.202 | 0.273 | 0.234 | 0.228 | 0.15 | 0.246
13 | NCI-H596 | 1.09 | 1.09 | 1.13 | 1.03 | 1.35 | 1.06 | 0.975 | 0.913 | 1.13 | 0.925 | 0.41 | 0.412 | 0.409 | 0.401 | 0.45 | 0.417 | 0.372 | 0.381 | 0.274 | 0.338
14 | NCI-H647 | 1.71 | 1.02 | 0.876 | 0.335 | 0.0724 | 0.394 | 0.33 | 0.357 | 0.266 | 0.262 | 0.44 | 0.351 | 0.363 | 0.434 | 0.471 | 0.38 | 0.383 | 0.259 | 0.208 | 0.342
15 | NCI-H650 | 1.22 | 0.955 | 0.802 | 0.857 | 1.3 | 0.342 | 0.319 | 0.395 | 0.308 | 0.288 | 1.15 | 0.89 | 0.922 | 1.17 | 1.15 | 0.805 | 0.766 | 0.698 | 0.466 | 0.94
16 | NCI-H661 | 0.445 | 0.472 | 0.584 | 0.447 | 0.537 | 0.692 | 0.527 | 0.435 | 0.442 | 0.378 | 0.409 | 0.458 | 0.472 | 0.547 | 0.418 | 0.438 | 0.383 | 0.288 | 0.283 | 0.498
